{"source": "patent US11324714B2", "about": "(priority 2008, dated 2022)", "tested_on": "advanced lymphomas", "experiment": "Phase II multi-center trial in patients with advanced lymphomas", "format": "in vivo, human", "method": "A Phase II multi-center trial of SGLU-1 (darinaparsin) was conducted in patients diagnosed with advanced lymphomas. Eligible patients required therapy and received at least 1 prior therapy. Patients received 300 mg/m^2 of darinaparsin intravenously for 5 consecutive days every 28 days (1 cycle) and were then evaluated for efficacy and safety by standard criteria. Treatment continued until toxicity or progression. To date the study has accrued 22 patients (15 non Hodgkin's [NHL], 7 Hodgkin's); 12 are male and 10 are female. Median age at baseline was 60.5 years (range: 28-80), ECOG performance status was ≤2, and median number of prior therapies was 3 (range: 1-6). Thirteen subjects have received at least 2 cycles of SGLU-1 and are evaluable for efficacy. Of these, 1 (diagnosed with peripheral T-cell lymphoma (PTCL)) has achieved a complete response (CR), 3 (diagnosed with diffuse large B-cell, marginal zone, and Hodgkin's nodular sclerosis, respectively) have achieved partial responses (PRs), and 2 patients with NHL have achieved stable disease (SD). In the patient with marginal zone lymphoma who achieved PR, no evidence for macroscopic disease was present, but microscopic disease was detectable on random biopsies from normal appearing gastric mucosa. All responders had been heavily pretreated (PTCL: CHOP (cyclophosphamide, doxorubicin, vincristine, and prednisolone)×6, ICE (ifosfamide, carboplatin and etoposide)×1, and EPOCH (etoposide, vincristine, doxorubicin, cyclophosphamide, and prednisone)×2; diffuse B-cell: RCHOP (rituximab, cyclophosphamide, doxorubicin, vincristine, and prednisolone)×5, RICE (rituximab, ifosfamide, carboplatin and etoposide)×3, and radiation therapy; marginal zone: rituximab×8, RCVP (rituximab, cyclophosphamide, vincristine and prednisolone)×1, and gemcitabine×1; and Hodgkin's: ICE×1, CBV (cyclophosphamide, carmustine and etoposide)×1, gemcitabine+MDX-060 (Medarex)×6). A total of 49 cycles of SGLU-1 have been administered. The only Grade 3 adverse event (AE) considered drug-related was wheezing. A total of 12 subjects have reported 37 serious adverse events (SAEs) while on study. Of these, only 2 had SAEs that were considered drug-related (neutropenic fever, fall). […] Initial responses (1 CR, 3 PRs, 2 SDs) have been observed among 13 evaluable patients.", "key": {"[1]": {"details": "300 mg/m^2 i.v. 5 consecutive days every 28 days, of 13 evaluable subjects"}}, "data": [{"smiles": "C[As](C)SC[C@H](NC(=O)CC[C@H](N)C(=O)O)C(=O)NCC(=O)O", "note": "[SGLU-1, S-(dimethylarsino) glutathione]", "values": [{"measurement": "complete response (CR)", "setting": "[1]", "result": 1, "unit": "patients"}, {"measurement": "partial responses (PRs)", "setting": "[1]", "result": 3, "unit": "patients"}, {"measurement": "Grade 3 adverse event (AE) considered drug-related", "setting": "22 patients, 49 cycles", "result": "wheezing"}, {"measurement": "serious adverse events (SAEs) reported", "setting": "22 patients, 49 cycles", "result": 37}, {"measurement": "subjects reporting serious adverse events (SAEs)", "setting": "22 patients, 49 cycles", "result": 12, "unit": "subjects"}, {"measurement": "tolerability", "setting": "heavily pretreated patients with advanced lymphoma", "result": "very well tolerated"}, {"measurement": "subjects with SAEs considered drug-related", "setting": "neutropenic fever, fall", "result": 2, "unit": "subjects"}]}]}
